Each structure is given as a SMILES string. pEC50: −log10 of the molar value.

A word on the pEC50: it is the EC50 on a negative log10 scale, so that one unit is a factor of ten.

In the test the test system is HCV 1b-Con-1 replicon. The experiment in a line: HCV 1b-Con-1 replicon assay (luciferase reporter gene, HuH-7 cells). The format is cell-based, Hepatitis C virus (HCV) genotype 1b-Con1. To be noted: Hepatitis C virus, Huh-7, luciferase reporter gene activity in the replicon, in the presence of 5% FBS. In general terms: Replicon systems follow genome replication, usually without infectious particles.
For the compound `COC(=O)N[C@H](C(=O)N1CCC[C@H]1C(=O)Nc1ccc(CN(Cc2ccc(NC(=O)[C@@H]3CCCN3C(=O)[C@@H](NC(=O)OC)C3CCCCC3)cc2)c2ccc(F)cc2)cc1)C1CCCCC1` [Example 104, dimethyl ([(4-fluorophenyl)imino]bis{methanediylbenzene-4,1-diylcarbamoyl(25)pyrrolidine-2,1-diyl[(1S)-1-cyclohexyl-2-oxoethane-2,1-diyl]})biscarbamate], the pEC50 is over 9.00.

For the compound `O=C(Nc1ccc(CN(Cc2ccc(NC(=O)[C@@H]3COCN3C(=O)OCc3ccccc3)cc2)c2ccc(F)cc2)cc1)[C@@H]1COCN1C(=O)OCc1ccccc1` [Example 126, dibenzyl (4S,4′S)-4,4′-{[(4-fluorophenyl)imino]bis(methanediylbenzene-4,1-diylcarbamoyl)}bis(1,3-oxazolidine-3-carboxylate)], the pEC50 was 7.00 to 8.00. As for `COC(=O)N[C@H](C(=O)N1CCC[C@H]1c1nc2ccc(CN(Cc3ccc4nc([C@@H]5CCCN5C(=O)[C@@H](NC(=O)OC)[C@@H](C)O)[nH]c4c3)c3ccccc3)cc2[nH]1)[C@@H](C)O` [Example 35, methyl [(1S,2R)-2-hydroxy-1-{[(2S)-2-(6-{[({2-[(2S)-1-{(2S,3R)-3-hydroxy-2-[(methoxycarbonyl)amino]butanoyl}pyrrolidin-2-yl]-1H-benzimidazol-6-yl}methyl)(phenyl)amino]methyl}-1H-benzimidazol-2-yl)pyrrolidin-1-yl]carbonyl}propyl]carbamate], the figure is over 9.00; as for `CN(C)[C@@H](C(=O)N1CCC[C@H]1C(=O)Nc1ccc(CN(Cc2ccc(NC(=O)[C@@H]3CCCN3C(=O)[C@@H](c3ccccc3)N(C)C)cc2)c2ccccc2)cc1)c1ccccc1` [Example 2], over 9.00; as for `CC[C@H](NC(=O)OC)C(=O)N1CCC[C@H]1C(=O)Nc1ccc(CN(Cc2ccc(NC(=O)[C@@H]3CCCN3C(=O)[C@@H](NC(=O)OC)C(C)(C)C)cc2)c2ccccc2)cc1` [Example 62, N-(methoxycarbonyl)-3-methyl-L-valyl-N-(4-{[{4-[(1-{(2S)-2-[(methoxycarbonyl)amino]butanoyl}-L-prolyl)amino]benzyl}(phenyl)amino]methyl}phenyl)-L-prolinamide], 8.00 to 9.00. As for `COC(=O)N[C@H](C(=O)N1CCC[C@H]1C(=O)Nc1ccc(CN(Cc2ccc(NC(=O)[C@@H]3CCCN3C(=O)[C@@H](NC(=O)OC)C(C)(C)C)cc2)[C@@H]2CCOC2)cc1)C(C)(C)C` [Example 44, dimethyl ([(3R)-tetrahydrofuran-3-ylimino]bis{methanediylbenzene-4,1-diylcarbamoyl(2S)pyrrolidine-2,1-diyl[(2S)-3,3-dimethyl-1-oxobutane-1,2-diyl]})biscarbamate], the figure is 7.00 to 8.00; as for `CC[C@H](NC(=O)OC)C(=O)N1CCC[C@H]1C(=O)Nc1ccc(CN(Cc2ccc(NC(=O)[C@@H]3CCCN3C(=O)[C@@H](c3ccccc3)N3CCCCC3)cc2)c2ccc(F)cc2)cc1` [Example 115, methyl [(1S)-1-({(2S)-2-[(4-{[(4-fluorophenyl){4-[({(2S)-1-[(2R)-2-phenyl-2-piperidin-1-ylacetyl]pyrrolidin-2-yl}carbonyl)amino]benzyl}amino]methyl}phenyl)carbamoyl]pyrrolidin-1-yl}carbonyl)propyl]carbamate], over 9.00; as for `O=C(Nc1ccc(CN(Cc2ccc(NC(=O)[C@@H]3CCCN3C(=O)[C@@H](c3ccccc3)N3CCOCC3)cc2)c2ccccc2)cc1)[C@@H]1CCCN1C(=O)[C@@H](c1ccccc1)N1CCOCC1` [Example 57, (2S,2′S)-N,N′-[(phenylimino)bis(methanediylbenzene-4,1-diyl)]bis{1-[(2R)-2-morpholin-4-yl-2-phenylacetyl]pyrrolidine-2-carboxamide}], over 9.00. Under `COC(=O)N[C@H](C(=O)N1[C@H](C(=O)Nc2ccc(CN(Cc3ccc(NC(=O)[C@@H]4C[C@@H]5CCC[C@@H]5N4C(=O)[C@@H](NC(=O)OC)C(C)(C)C)cc3)c3ccc(F)cc3)cc2)C[C@@H]2CCC[C@@H]21)C(C)(C)C` [Example 123, dimethyl ([(4-fluorophenyl)imino]bis{methanediylbenzene-4,1-diylcarbamoyl(2S,3aS,6aS)hexahydrocyclopenta[b]pyrrole-2,1(2H)-diyl[(2S)-3,3-dimethyl-1-oxobutane-1,2-diyl]})biscarbamate] stands over 9.00; under `COC(=O)N[C@H](C(=O)N1CCC[C@H]1C(=O)Nc1ccc(CN(Cc2ccc(NC(=O)[C@@H]3CCCN3C(=O)[C@@H](c3ccccc3)N3CCCCC3)cc2)c2ccc(F)cc2)cc1)[C@H]1CCOC1` [Example 114, methyl {(1S)-2-{(2S)-2-[(4-{[(4-fluorophenyl){4-[({(2S)-1-[(2R)-2-phenyl-2-piperidin-1-ylacetyl]pyrrolidin-2-yl}carbonyl)amino]benzyl}amino]methyl}phenyl)carbamoyl]pyrrolidin-1-yl}-2-oxo-1-[(3R)-tetrahydrofuran-3-yl]ethyl}carbamate], over 9.00; under `COC(=O)N[C@@H](C)C(=O)N1CCC[C@H]1C(=O)Nc1ccc(CN(Cc2ccc(NC(=O)[C@@H]3CCCN3C(=O)[C@H](C)NC(=O)OC)cc2)c2ccc(F)cc2)cc1` [Example 15], 8.00 to 9.00.

For the compound `COC(=O)N[C@H](C(=O)N1CCC[C@H]1C(=O)Nc1ccc(CN(Cc2ccc(NC(=O)[C@@H]3CCCN3C(=O)[C@@H](c3ccccc3)N(C)C)cc2)c2ccccc2)cc1)C(C)(C)C` [Example 10, Methyl (S)-1-((S)-2-(4-(((4-((S)-1-((R)-2-(dimethylamino)-2-phenylacetyl)pyrrolidine-2-carboxamido)benzyl)(phenyl)amino)methyl)phenylcarbamoyl)pyrrolidin-1-yl)-3,3-dimethyl-1-oxobutan-2-ylcarbamate], the negative logarithm of the EC50 (pEC50) was over 9.00. As for `O=C(Nc1ccc(CN(Cc2ccc(NC(=O)[C@@H]3CCCN3C(=O)C(c3ccccc3)N3CC[C@H](F)C3)cc2)c2ccc(F)cc2)cc1)[C@@H]1CCCN1C(=O)C(c1ccccc1)N1CC[C@H](F)C1` (single isomer, unassigned) [Example 120], the figure is over 9.00; as for `C=CC[C@H]1CC[C@@H](C(=O)Nc2ccc(CN(Cc3ccc(NC(=O)[C@@H]4CC[C@H](CC=C)N4C(=O)[C@@H](NC(=O)OC)C(C)(C)C)cc3)c3ccccc3)cc2)N1C(=O)[C@@H](NC(=O)OC)C(C)(C)C` [Example 64], over 9.00.

`CC(C)C(C(=O)N1CCC[C@H]1C(=O)Nc1ccc(CN(Cc2ccc(NC(=O)[C@@H]3CCCN3C(=O)C(c3ccccc3)C(C)C)cc2)c2ccc(F)cc2)cc1)c1ccccc1` (stereo partly drawn) [Example 108, (2S,2′S)-N,N′-{[(4-fluorophenyl)imino]bis(methanediylbenzene-4,1-diyl)}bis[1-(3-methyl-2-phenylbutanoyl)pyrrolidine-2-carboxamide]]: the negative-log EC50 (pEC50) is 8.00 to 9.00. Under `CN(C)[C@@H](C(=O)N1CCC[C@H]1c1nc2cc(CN(Cc3ccc4[nH]c([C@@H]5CCCN5C(=O)[C@@H](c5ccccc5)N(C)C)nc4c3)c3ccccc3)ccc2[nH]1)c1ccccc1` [Example 18, (2R,2′R)-1,1′-((2S,2′S)-2,2′-(5,5′-(phenylazanediyl)bis(methylene)bis(1H-benzo[d]imidazole-5,2-diyl))bis(pyrrolidine-2,1-diyl))bis(2-(dimethylamino)-2-phenylethanone)] stands over 9.00; under `COC(=O)N[C@H](C(=O)N1CCC[C@H]1C(=O)Nc1ccc(CN(Cc2ccc(NC(=O)[C@@H]3CCCN3C(=O)[C@H](NC(=O)[C@H]3CCCO3)c3ccccc3)cc2)c2ccccc2)cc1)C(C)(C)C` [Example 88, N-(methoxycarbonyl)-3-methyl-L-valyl-N-[4-({phenyl[4-({1-[(2R)-2-phenyl-2-{[(2R)-tetrahydrofuran-2-ylcarbonyl]amino}acetyl]-L-prolyl}amino)benzyl]amino}methyl)phenyl]-L-prolinamide], over 9.00; under `CC[C@H](NC(=O)OC)C(=O)N1CCC[C@H]1C(=O)Nc1ccc(CN(Cc2ccc(NC(=O)[C@@H]3CCCN3C(=O)[C@H](CC)NC(=O)OC)cc2)c2ccc(F)cc2)cc1` [Example 112, dimethyl ([(4-fluorophenyl)imino]bis{methanediylbenzene-4,1-diylcarbamoyl(25)pyrrolidine-2,1-diyl[(2S)-1-oxobutane-1,2-diyl]})biscarbamate], 8.00 to 9.00. As for `COC(=O)N[C@H](C(=O)N1CCC[C@H]1C(=O)Nc1ccc(CN(Cc2ccc(NC(=O)[C@@H]3CCCN3C(=O)[C@@H](NC(=O)OC)[C@H](C)O)cc2)c2ccccc2)cc1)[C@H](C)O` [Example 49, dimethyl [(phenylimino)bis{methanediylbenzene-4,1-diylcarbamoyl(2S)pyrrolidine-2,1-diyl[(2S,3S)-3-hydroxy-1-oxobutane-1,2-diyl]}]biscarbamate], the figure is 8.00 to 9.00. On to `CCC(CC)[C@H](NC(=O)OC)C(=O)N1CCC[C@H]1C(=O)Nc1ccc(CN(Cc2ccc(NC(=O)[C@@H]3CCCN3C(=O)[C@@H](NC(=O)OC)C(CC)CC)cc2)c2ccc(F)cc2)cc1` [Example 135], for which the negative-log EC50 (pEC50) is 8.00 to 9.00. As for `COC(=O)N[C@H](C(=O)N1CCC[C@H]1C(=O)Nc1ccc(CN(Cc2ccc(NC(=O)[C@@H]3CCCN3C(=O)[C@@H](NC(=O)OC)[C@@H](C)OC)cc2)c2ccccc2)cc1)[C@@H](C)OC` [Example 51, dimethyl[(phenylimino)bis{methanediylbenzene-4,1-diylcarbamoyl(2S)pyrrolidine-2,1-diyl[(2S,3R)-3-methoxy-1-oxobutane-1,2-diyl]}]biscarbamate], the figure is 8.00 to 9.00. As for `O=C(Nc1ccc(CN(Cc2ccc(NC(=O)[C@@H]3CCCN3C(=O)C(c3ccccc3)N3CCC(F)(F)CC3)cc2)c2ccc(F)cc2)cc1)[C@@H]1CCCN1C(=O)C(c1ccccc1)N1CCC(F)(F)CC1` (single isomer, unassigned) [Example 139], the figure is 8.00 to 9.00; as for `COC(=O)N[C@H](C(=O)N1CCC[C@H]1C(=O)Nc1cccc(CN(Cc2cccc(NC(=O)[C@@H]3CCCN3C(=O)[C@@H](NC(=O)OC)C(C)C)c2)c2ccc(F)cc2)c1)C(C)C` [Example 146, dimethyl ([(4-fluorophenyl)imino]bis{methanediylbenzene-3,1-diylcarbamoyl(2S)pyrrolidine-2,1-diyl[(2S)-3-methyl-1-oxobutane-1,2-diyl]})biscarbamate], 8.00 to 9.00.

The values above are taken from patent US9278922B2 (ABBVIE INC., priority 2009, dated 2016).
